From US5512576A, “2-substituted 1,2,5,-thiadiazolidin-3-one 1,1-dioxides and compositions and method of use thereof” (Sterling Winthrop Inc., priority 1994, dated 1996)

Target: T1, human leukocyte elastase (Homo sapiens, UniProt P08246)
T1 sequence (P08246 30-267): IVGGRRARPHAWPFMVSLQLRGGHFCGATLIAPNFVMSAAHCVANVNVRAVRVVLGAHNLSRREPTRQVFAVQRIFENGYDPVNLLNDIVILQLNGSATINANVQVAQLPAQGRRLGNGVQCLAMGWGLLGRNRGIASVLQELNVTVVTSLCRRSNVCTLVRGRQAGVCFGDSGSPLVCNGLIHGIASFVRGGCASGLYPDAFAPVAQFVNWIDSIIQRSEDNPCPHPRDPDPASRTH
Assay: human leukocyte elastase (HLE) inhibition, in vitro, substrate MeOSuc-Ala-Ala-Pro-Val-pNA
Type: biochemical
Conditions: pH 7.8 at 25° C., absorbance at 410 nm, read-out: Ki, human leukocyte elastase inhibitory activity
Method: The test compound (inhibitor) is dissolved in DMSO in a vial to produce an inhibitor stock solution which has a concentration in the range of 200-1000 μM. The inhibitor stock solution is diluted (1:4, 1:16 and 1:64) into assay vials (vials 1, 2 and 3 respectively) containing 2.4 mL of buffer solution (50 mM N- 2-hydroxyethyl!piperazine-N'- 2-ethanesulfonic acid!/NaOH, 500 mM NaCl, pH 7.8 at 25° C.) and DMSO is added so that the total volume in each vial is 3.2 mL. 70 μL, 50 μL, 35 μL and 25 μL of inhibitor from assay vial 1 is placed into the first four wells of a 96-well microtiter plate and each well is made up to 90 μL total volume with the addition of a 25% DMSO/buffer solution. […]
The 96-well microtiter plate is placed into a Microplate Reader #89815A spectrophotometer and 110 BL of the enzyme solution (prepared as follows: a mixture of 20 mL of buffer solution and 20 mg of bovine serum albumen is gently vortexed in a scintillation vial and 5 BL HLE stock solution (1 mg/mL dissolved in deionized water) is added) is added simultaneously to each of the 16 wells. Each of the solutions in the wells is throughly mixed and then the time-dependent absorbance data is collected at an absorbance of 410 nm until the assay is complete. […]
A plot of the absorbance versus time data thus obtained affords progress curves the final slope of which is equal to the final steady-state velocities (VF). […]

## CC(C)CCC1C(=O)N(COc2cc(=O)n3ccccc3n2)S(=O)(=O)N1C (stereo not shown) [Example 1(j), 2-(4-oxo-4-H-pyrido 1,2-a!pyrimidin-2-yl-oxymethyl)-4-(3-methylbutyl)-5-methyl-1,2,5-thiadiazolidin-3-one 1,1-dioxide]
  Ki: 790 pM
